Measured values as given in patent US9181309B1, “Peptide regulation of maize defense responses” (The United States of America, as represented by the …, priority 2011, dated 2015).

Key:
maize leaf transcripts = assay: Microarray analysis of transcript levels in ZmPep3 vs water-treated leaves; assay type: in vivo, Zea mays; settings: leaves treated for 12 h
From the text: The gene transcripts shown in FIG. 4 are a subset of the defense-related genes found to be induced by ZmPEP3 peptide in the excised leaf assays. Including these, a total of twenty genes have been identified as ZmPEP3-responsive. All can be classified as pertaining to four broad categories of defense-related genes; those encoding proteins that are directly antimicrobial, those encoding proteins that synthesize secondary metabolites associated with defense, those encoding proteins that are involved in reactive oxygen species-based signal transduction and detoxification, and those that encode biosynthetic proteins for the two main plant small molecule hormone regulators of defense, ethylene and oxylipins. To obtain a more global perspective of gene expression regulated by ZmPEP3, a microarray experiment was performed to compare expression levels in ZmPEP3 vs. water-treated leaves after […]. […] In FIG. 7, real-time quantification of expression levels of genes associated with direct and indirect herbivore defenses confirms that ZmPEP3 is a strong regulator of both defense responses. […] FIG. 8 lists defense-associated genes discovered to be induced by the ZmPEP3.
A microarray analysis of transcript levels in leaves that were treated for 12 h with either water or ZmPep3 was employed to better characterize the breadth of ZmPep3-regulated responses. […]

[1] = system: defense-related genes in excised maize leaves; assay: Excised leaf bioassay, semi-quantitative RT-PCR of defense marker genes; assay type: in vivo, Zea mays
Experimental: Over a 16.5 hour time-course, excised maize leaves were supplied with either a solution of ZmPEP3 peptide or with a water control. Based on the average volume of ZmPEP3 solution taken up by the maize leaves, each leaf was exposed to around 1.8 nMols of peptide per gram of leaf material over the time course study. Zero hour treatments indicate leaves that were immediately harvested at the beginning of the study; the other time points refer to hours elapsed after leaves were excised and placed into solution. As a control to observe herbivory-induced expression of these genes, a timecourse of exposure to herbivory by Spodoptera frugiperda (fall armyworm, FAW) was performed for comparison. As described in the Material and Methods, when using the semi-quantitative RT-PCR analysis technique, observed band intensity is indicative of initial transcript abundance in a sample, thus bands of greater intensity represent sample with enriched transcript abundance.
Maize tissues that had been harvested and frozen in liquid nitrogen were ground to a fine powder using a porcelain mortar and pestle. Approximately 100 mg of frozen powdered plant material was transferred to a 2 mL microcentrifuge tubes to which 1 mL of Trizol reagent (Invitrogen, Carlsbad Calif.) was added. RNA isolation was performed as per the Trizol instructions, supplemented by an acid:phenol:chloroform partitioning step to minimize contaminating DNA. RNA was solublized in 50 μL diethylpyrocarbonate (DEPC)-treated water. RNA yield was quantified by measuring the A260, and the samples were stored at −20° C.
RNA was reverse transcribed using all components from the RETROscript kit (Ambion, Austin Tex.). The 20 μL reverse transcription reactions were assembled as per kit instructions The reverse transcription reaction was allowed to proceed for one hour at 44° C., followed by a ten minute incubation at 92° C.
Semi-quantitative RT-PCR reactions were assembled as follows: 1.2 μL of the cDNA generated in the reverse transcription reactions was used as template for 25 μL PCR reactions. Each reaction contained Platinum 10×PCR buffer (Invitrogen, Carlsbad Calif.) and the final concentration of Mg^2+ and dNTPs were 1.5 mM and 200 μM, respectively. Platinum Taq polymerase (Invitrogen, Carlsbad Calif.) was added at 0.5 units per reaction, while primers were used at 0.4 μM each. All primers were designed to for an annealing temperature of 56° C., to amplify a product of 250 to 350 base pairs and to span introns when possible. The ZmActin1 gene transcript (GenBank# J01238) has been described in the literature as an effective housekeeping control transcript for the study of maize defense gene expression (Erb et al., 2009), and was therefore used to permit comparisons of relative transcript abundance from sample to sample. Genes to be analyzed for responsiveness to ZmPep3 were all shown in previous work to be associated with either pathogen or herbivore resistance (Erb et al., Plant J 59: 292, 2009; Doehlemann et al., Plant J. 56:181, 2008; Köliner et al., Plant Cell 20: 482, 2008; Chen et al., Phytopathology 94:938, 2004; Chen et al., Phytopathology 97:1094, 2007; Schnee et al., Plant Physiol 130: 2049, 2002; Frey et al., Proc Natl Acad Sci USA. 97:14801, 2000).

Cotesia marginiventris = assay: Olfactometer assay of parasitoid wasp attraction to pretreated leaves; assay type: in vivo
From the text: The generalist parasitoid Cotesia marginiventris attacks many Lepidopteran species including S. exigua and is attracted to herbivory-induced maize volatiles (Turlings et al., Science 250:1251, 1990). Precisely which components are attractive has been difficult to determine, and the wasps respond strongly to unidentified minor components when subjected to gas chromatograph-coupled electroantennography (Gouinguene et al., J Chem Ecol. 31:1023, 2005). To determine whether the ZmPep3-induced blend was attractive to naïve C. marginiventris, olfactometer assays were conducted with leaves pretreated with ZmPep3, Gln-18:3 or water for 16 h. To ensure that any preference was due to elicited plant responses and not to an inherent attraction or repellence to any treatment substance, leaves treated at time of assay were used as controls. […] Thus, ZmPep3-regulated responses are sufficient to generate effective indirect defenses against Lepidopteran herbivores.

[2] = later time points, vs water-supplied leaves

ZmPEP3: 23 amino acid maize plant elicitor peptide TRTPPWPPCPPEEGSGGNGGSHN (SEQ ID NO: 3) (Zea mays)
BX1 and BX2 microarray probe sets (maize leaf transcripts): upregulated | SerPIN probe set in microarray (maize leaf transcripts): most highly upregulated probe set | number of defense-related genes identified as ZmPEP3-responsive ([1]; excised leaf assays): twenty | time at which AOS transcript increases in abundance ([1]; excised leaves, around 1.8 nMols of peptide per gram of leaf): 2 h | endochitinase A transcript levels ([1]; excised leaves, around 1.8 nMols of peptide per gram of leaf, early time points, vs water): increased transcript levels at all early time points | IGL expression ([1]; later time points): strongly induced | AOS transcript levels [1, 2]: markedly increased | TPS23 transcript abundance [1, 2]: increased greatly | peroxidase transcript accumulation ([1]; later timepoints, not detectable in water-supplied leaves): marked induction of transcript accumulation | wasps attracted to ZmPep3-pretreated vs water-pretreated leaves (Cotesia marginiventris; 16 h pretreatment): more wasps were attracted | wasp preference for leaves pretreated 16 h vs leaves treated at time of assay (Cotesia marginiventris; naive C. marginiventris): strongly preferred
